Assay results: ChEMBL document CHEMBL1159176, “Regioselective synthesis of 3-aryl substituted pyrrolidines via palladium catalyzed arylation: pharmacological evaluation for central dopaminergic and serotonergic activity” (Bioorg Med Chem Lett, 1997)

How the values were obtained:
[1] = molecular target: T1, 5-hydroxytryptamine receptor 1A (Rattus norvegicus, UniProt P19327); assay: Binding affinity against [3H]8-OH-DPAT binding to 5-hydroxytryptamine 1A receptor expressed in CHO-K1 cells; type: cell-based
T1 sequence (P19327 whole entry): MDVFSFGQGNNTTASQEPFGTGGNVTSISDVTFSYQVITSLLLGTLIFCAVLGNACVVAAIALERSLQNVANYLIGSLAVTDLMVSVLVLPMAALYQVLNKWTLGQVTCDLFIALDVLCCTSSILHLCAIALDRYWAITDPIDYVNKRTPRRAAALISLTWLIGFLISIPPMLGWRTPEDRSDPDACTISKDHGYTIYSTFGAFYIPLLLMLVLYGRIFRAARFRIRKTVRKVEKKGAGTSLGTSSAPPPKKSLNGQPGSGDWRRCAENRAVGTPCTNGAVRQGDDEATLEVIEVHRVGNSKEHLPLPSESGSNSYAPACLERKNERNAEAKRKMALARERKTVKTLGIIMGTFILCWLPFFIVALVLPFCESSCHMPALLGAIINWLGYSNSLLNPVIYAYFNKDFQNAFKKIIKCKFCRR

[2] = molecular target: T2, Serotonin 2 (5-HT2) receptor (Rattus norvegicus, UniProt P30994+P08909+P14842); assay: Inhibitory concentration against [3H]ketanserin binding to 5-hydroxytryptamine 2 receptor expressed in CHO-K1 cells; type: cell-based
D(3) dopamine receptor [3] = molecular target: T3, D(3) dopamine receptor (Rattus norvegicus, UniProt P19020); assay: Binding affinity against [3H]spiperone binding to Dopamine receptor D3 expressed in CHO-K1 cells; type: cell-based
D(2) dopamine receptor [4] = molecular target: T4, D(2) dopamine receptor (Rattus norvegicus, UniProt P61169); assay: Binding affinity against [3H]U-86170 binding to Dopamine receptor D2 expressed in CHO-K1 cells; type: cell-based
Rattus norvegicus [5] = assay: Locomotor activity, measured for 30 min after injection of drug, administered subcutaneously at 100 umol/kg; type: functional
Rattus norvegicus [6] = assay: Accumulation of 5-Hydroxytryptophan in cortical brain region in rat after injecting drug compound 65 min and NSD 1015 at a dose of 100 mg/kg administered subcutaneously, 30 min before death, tested in vivo; type: functional; settings: route subcutaneous
Rattus norvegicus [7] = assay: Accumulation of 5-Hydroxytryptophan in limbic region in rat after injecting drug compound 65 min and NSD 1015 at a dose of 100 mg/kg administered subcutaneously, 30 min before death, tested in vivo; type: functional, Limbic system; settings: route subcutaneous
Rattus norvegicus [8] = assay: Accumulation of 5-Hydroxytryptophan in striatal region in rat after injecting drug compound 65 min and NSD 1015 at a dose of 100 mg/kg administered subcutaneously, 30 min before death, tested in vivo; type: functional; settings: route subcutaneous
Rattus norvegicus [9] = assay: Accumulation of Dihydroxyphenylalanine in cortical brain region in rat after injecting drug compound 65 min and NSD 1015 at a dose of 100 mg/kg administered subcutaneously, 30 min before death, tested in vivo; type: functional; settings: route subcutaneous
Rattus norvegicus [10] = assay: Accumulation of Dihydroxyphenylalanine in limbic region in rat after injecting drug compound 65 min and NSD 1015 at a dose of 100 mg/kg administered subcutaneously, 30 min before death, tested in vivo; type: functional, Limbic system; settings: route subcutaneous
Rattus norvegicus [11] = assay: Accumulation of Dihydroxyphenylalanine in striatal region in rat after injecting drug compound 65 min and NSD 1015 at a dose of 100 mg/kg administered subcutaneously, 30 min before death, tested in vivo; type: functional; settings: route subcutaneous
[12] = molecular target: T2, Serotonin 2 (5-HT2) receptor; assay: Binding affinity against [3H]ketanserin binding to 5-hydroxytryptamine 2 receptor expressed in CHO-K1 cells; type: cell-based
D(3) dopamine receptor [13] = molecular target: T3, D(3) dopamine receptor; assay: Inhibitory concentration against [3H]spiperone binding to Dopamine receptor D3 expressed in CHO-K1 cells; type: cell-based
[14] = molecular target: T1, 5-hydroxytryptamine receptor 1A; assay: Inhibitory concentration against [3H]8-OH-DPAT binding to 5-hydroxytryptamine 1A receptor expressed in CHO-K1 cells; type: cell-based
D(2) dopamine receptor [15] = molecular target: T4, D(2) dopamine receptor; assay: Inhibitory concentration against [3H]U-86170 binding to Dopamine receptor D2 expressed in CHO-K1 cells; type: cell-based
Rattus norvegicus [16] = assay: Accumulation of Dihydroxyphenylalanine in limbic region in rat after injecting drug compound 65 min and NSD 1015 at a dose of 0.07 mg/kg administered subcutaneously, 30 min before death, tested in vivo; type: functional, Limbic system; settings: route subcutaneous
Rattus norvegicus [17] = assay: Accumulation of Dihydroxyphenylalanine in striatal region in rat after injecting drug compound 65 min and NSD 1015 at a dose of 0.07 mg/kg administered subcutaneously, 30 min before death, tested in vivo; type: functional; settings: route subcutaneous

T3 sequence (P19020 whole entry): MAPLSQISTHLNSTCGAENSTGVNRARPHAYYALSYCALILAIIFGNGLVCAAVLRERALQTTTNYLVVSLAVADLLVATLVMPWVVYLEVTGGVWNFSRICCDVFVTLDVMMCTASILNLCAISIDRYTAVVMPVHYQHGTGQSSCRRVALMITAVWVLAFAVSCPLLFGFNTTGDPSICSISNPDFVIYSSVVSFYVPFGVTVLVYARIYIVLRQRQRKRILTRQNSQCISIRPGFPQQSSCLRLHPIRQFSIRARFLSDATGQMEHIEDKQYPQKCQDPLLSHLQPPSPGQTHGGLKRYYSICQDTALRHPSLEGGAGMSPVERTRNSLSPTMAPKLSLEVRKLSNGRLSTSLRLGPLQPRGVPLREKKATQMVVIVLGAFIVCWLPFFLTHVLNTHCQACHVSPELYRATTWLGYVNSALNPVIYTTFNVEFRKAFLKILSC
T4 sequence (P61169 whole entry): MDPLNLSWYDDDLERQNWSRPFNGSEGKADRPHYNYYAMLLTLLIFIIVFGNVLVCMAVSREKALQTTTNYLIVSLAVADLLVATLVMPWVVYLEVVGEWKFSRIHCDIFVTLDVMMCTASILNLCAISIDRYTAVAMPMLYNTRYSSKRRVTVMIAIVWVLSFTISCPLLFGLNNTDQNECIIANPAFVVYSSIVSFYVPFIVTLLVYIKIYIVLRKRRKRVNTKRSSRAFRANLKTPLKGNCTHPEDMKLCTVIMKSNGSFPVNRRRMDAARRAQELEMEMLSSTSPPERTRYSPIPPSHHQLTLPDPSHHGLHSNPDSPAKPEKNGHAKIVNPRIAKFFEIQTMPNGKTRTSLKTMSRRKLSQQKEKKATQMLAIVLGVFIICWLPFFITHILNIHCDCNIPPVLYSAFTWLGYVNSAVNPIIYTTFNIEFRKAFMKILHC

In the case of `CCCN1CCC(c2cccc(OS(=O)(=O)C(F)(F)F)c2)C1` (configuration not stated), the Ki [1] is reported as 652 nM, the IC50 [2] is reported as > 1000 nM and the Ki (D(3) dopamine receptor [3]) is reported as 62 nM. For the same compound, the Ki (D(2) dopamine receptor [4]) was 162 nM, the Control (Rattus norvegicus [5]) was 93% and the Control (Rattus norvegicus [6]) was 98%. It also gave a Control (Rattus norvegicus [7]) of 85%, a Control (Rattus norvegicus [8]) of 86% and a Control (Rattus norvegicus [9]) of 114%. It also gave a Control (Rattus norvegicus [10]) of 211% and a Control (Rattus norvegicus [11]) of 290%.

In the case of `CCCN1CCC[C@@H](c2cccc(S(C)(=O)=O)c2)C1`, the Control (Rattus norvegicus [5]) is reported as 135%, the Control (Rattus norvegicus [6]) is reported as 78% and the Control (Rattus norvegicus [7]) is reported as 83%. It also gave a Control (Rattus norvegicus [8]) of 85%, a Control (Rattus norvegicus [9]) of 165% and a Control (Rattus norvegicus [10]) of 228%. For the same compound, the Control (Rattus norvegicus [11]) was 317%.

`c1ccc2c(C3CCNC3)cccc2c1` (configuration not stated) was tested, and the Ki [1] was 95 nM, the Ki [12] was 40 nM and the Ki (D(2) dopamine receptor [4]) was 264 nM. For the same compound, the IC50 (D(3) dopamine receptor [13]) was > 1000 nM, the Control (Rattus norvegicus [5]) was 129% and the Control (Rattus norvegicus [6]) was 86%. The Control (Rattus norvegicus [7]) was 94%, the Control (Rattus norvegicus [8]) was 93% and the Control (Rattus norvegicus [9]) was 104%. The Control (Rattus norvegicus [10]) was 92% and the Control (Rattus norvegicus [11]) was 82%.

In the case of `CN1CCC(C2=CN=CCC2)C1` (configuration not stated), the IC50 [14] is reported as > 1000 nM, the IC50 [2] is reported as > 1000 nM and the IC50 (D(2) dopamine receptor [15]) is reported as > 1000 nM. The IC50 (D(3) dopamine receptor [13]) was > 1000 nM, the Control (Rattus norvegicus [5]) was 47% and the Control (Rattus norvegicus [6]) was 79%. It also gave a Control (Rattus norvegicus [7]) of 72%, a Control (Rattus norvegicus [8]) of 112% and a Control (Rattus norvegicus [9]) of 126%. For the same compound, the Control (Rattus norvegicus [10]) was 112% and the Control (Rattus norvegicus [11]) was 112%.

With `CCCN1CCC(C2CCCCC2)C1` (configuration not stated) the IC50 [14] was > 1000 nM, the IC50 [2] was > 1000 nM and the IC50 (D(2) dopamine receptor [15]) was > 1000 nM. The IC50 (D(3) dopamine receptor [13]) was > 1000 nM, the Control (Rattus norvegicus [5]) was 87% and the Control (Rattus norvegicus [6]) was 88%. The Control (Rattus norvegicus [7]) was 102%, the Control (Rattus norvegicus [8]) was 103% and the Control (Rattus norvegicus [9]) was 119%. The Control (Rattus norvegicus [10]) was 116% and the Control (Rattus norvegicus [11]) was 95%.

In the case of `CCCN1CCC(c2ccccc2)C1` (configuration not stated), the Ki [1] is reported as 453 nM, the IC50 [2] is reported as > 1000 nM and the Ki (D(3) dopamine receptor [3]) is reported as > 2500 nM. For the same compound, the Ki (D(2) dopamine receptor [4]) was 625 nM, the Control (Rattus norvegicus [5]) was 115% and the Control (Rattus norvegicus [6]) was 83%. It also gave a Control (Rattus norvegicus [7]) of 92%, a Control (Rattus norvegicus [8]) of 81% and a Control (Rattus norvegicus [9]) of 130%. For the same compound, the Control (Rattus norvegicus [10]) was 96% and the Control (Rattus norvegicus [11]) was 66%.

With `CCCN1CCC(c2cccc(O)c2)C1` (configuration not stated) the Ki [1] was 201 nM, the IC50 [2] was > 1000 nM and the Ki (D(3) dopamine receptor [3]) was 52 nM. It also gave a Ki (D(2) dopamine receptor [4]) of 68 nM, a Control (Rattus norvegicus [5]) of 20% and a Control (Rattus norvegicus [6]) of 79%. For the same compound, the Control (Rattus norvegicus [7]) was 74%, the Control (Rattus norvegicus [8]) was 68% and the Control (Rattus norvegicus [9]) was 88%. For the same compound, the Control (Rattus norvegicus [10]) was 113% and the Control (Rattus norvegicus [11]) was 153%.

Work on `CCCN1CCC(c2cccc3ccccc23)C1` (configuration not stated) yielded a Ki [1] of 73 nM, a Ki [12] of 113 nM and a Ki (D(2) dopamine receptor [4]) of 71 nM. The IC50 (D(3) dopamine receptor [13]) was > 1000 nM, the Control (Rattus norvegicus [5]) was 80% and the Control (Rattus norvegicus [6]) was 57%. It also gave a Control (Rattus norvegicus [7]) of 53%, a Control (Rattus norvegicus [8]) of 54% and a Control (Rattus norvegicus [9]) of 115%. For the same compound, the Control (Rattus norvegicus [10]) was 118% and the Control (Rattus norvegicus [11]) was 177%.

In the case of `CCCN1CCC(c2cccc(S(C)(=O)=O)c2)C1` (configuration not stated), the Ki [1] is reported as 807 nM, the IC50 [2] is reported as > 1000 nM and the IC50 (D(2) dopamine receptor [15]) is reported as > 1000 nM. For the same compound, the IC50 (D(3) dopamine receptor [13]) was > 1000 nM, the Control (Rattus norvegicus [5]) was 126% and the Control (Rattus norvegicus [6]) was 92%. For the same compound, the Control (Rattus norvegicus [7]) was 97%, the Control (Rattus norvegicus [8]) was 78% and the Control (Rattus norvegicus [9]) was 143%. For the same compound, the Control (Rattus norvegicus [10]) was 207% and the Control (Rattus norvegicus [11]) was 256%.

`CCCN1CCC(c2cccc(C(F)(F)F)c2)C1` (configuration not stated) was tested, and the Ki [1] was 351 nM, the Ki [12] was 569 nM and the Ki (D(3) dopamine receptor [3]) was 35 nM. For the same compound, the Ki (D(2) dopamine receptor [4]) was 151 nM, the Control (Rattus norvegicus [5]) was 89% and the Control (Rattus norvegicus [6]) was 87%. For the same compound, the Control (Rattus norvegicus [7]) was 97%, the Control (Rattus norvegicus [8]) was 78% and the Control (Rattus norvegicus [9]) was 131%. For the same compound, the Control (Rattus norvegicus [10]) was 205% and the Control (Rattus norvegicus [11]) was 297%.

In the case of `CCCN1CCC(c2cccnc2)C1` (configuration not stated), the IC50 [14] is reported as > 1000 nM, the IC50 [2] is reported as > 1000 nM and the IC50 (D(2) dopamine receptor [15]) is reported as > 1000 nM. For the same compound, the IC50 (D(3) dopamine receptor [13]) was > 1000 nM, the Control (Rattus norvegicus [5]) was 15% and the Control (Rattus norvegicus [6]) was 94%. The Control (Rattus norvegicus [7]) was 90%, the Control (Rattus norvegicus [8]) was 104% and the Control (Rattus norvegicus [9]) was 132%. It also gave a Control (Rattus norvegicus [10]) of 111% and a Control (Rattus norvegicus [11]) of 108%.

Work on `O=C(CCCN1CCC(O)(c2ccc(Cl)cc2)CC1)c1ccc(F)cc1` [HALOPERIDOL] yielded a Control (Rattus norvegicus [5]) of 2%, a Control (Rattus norvegicus [16]) of 241% and a Control (Rattus norvegicus [17]) of 310%.

`CS(=O)(=O)c1cccc(C2CCNC2)c1` (configuration not stated) was tested, and the IC50 [14] was > 1000 nM, the IC50 [2] was > 1000 nM and the IC50 (D(2) dopamine receptor [15]) was > 1000 nM. The IC50 (D(3) dopamine receptor [13]) was > 1000 nM, the Control (Rattus norvegicus [5]) was 71% and the Control (Rattus norvegicus [6]) was 98%. For the same compound, the Control (Rattus norvegicus [7]) was 96%, the Control (Rattus norvegicus [8]) was 92% and the Control (Rattus norvegicus [9]) was 104%. For the same compound, the Control (Rattus norvegicus [10]) was 89% and the Control (Rattus norvegicus [11]) was 91%.

Work on `FC(F)(F)c1cccc(C2CCNC2)c1` (configuration not stated) yielded a Ki [1] of 174 nM, a Ki [12] of 227 nM and a Ki (D(3) dopamine receptor [3]) of 633 nM. For the same compound, the Ki (D(2) dopamine receptor [4]) was 100 nM, the Control (Rattus norvegicus [5]) was 74% and the Control (Rattus norvegicus [6]) was 70%. The Control (Rattus norvegicus [7]) was 70%, the Control (Rattus norvegicus [8]) was 82% and the Control (Rattus norvegicus [9]) was 72%. For the same compound, the Control (Rattus norvegicus [10]) was 113% and the Control (Rattus norvegicus [11]) was 163%.
